Measured values as given in patent publication US11149316B2, “Methods for detecting inactivation of the homologous recombination pathway (BRCA1/2) in human tumors” (INSTITUT CURIE, priority 2013, dated 2021).

Tested on: triple-negative breast tumors
Experiment: Cisplatin treatment of patients with triple-negative breast tumors, response by Miller-Payne score (GSE28330; Cisplatin-1 and Cisplatin-2 trials)
Format: in vivo, human
Protocol: Two publically available data sets from clinical trial of Cisplatin treatment of patients with triple-negative breast tumors [GSE28330 GEO database][59] were processed and the number of LST_10 Mb was calculated for each tumor with good quality of measured profile. Genomic profiles were measured by two types of chip: Affymetrix Oncoscan 70K (Dataset 2) and Oncoscan 300K (Dataset 1). Information about mutational status of BRCA1/2 was available for some tumors. Response to treatment was measured by Miller-Payne score, where 4 and 5 were considered as “positive response”, while scores <4 were considered as “no response” [59] Case by case and summary results are presented in Table 2 and Tables 3-5 (statistical comparisons were performed by the Fisher exact test).
(i) TCGA cohort: 467 tumors with high quality SNP-array profile and available normal/tumor exome sequencing results in variant call format (vcf) from the TCGA Breast Invasive carcinoma dataset were used. (ii) In-house TNBC cohort: a series of 104 TNBC enriched in BRCAi germline mutated cased. (iii) the publically available data from Cisplatin-1 and Cisplatin-2 clinical trials cohorts: 54 TNBCs with suitable quality of Oncoscan (Affymetrix) array profile were obtained from public GEO repository GSE28330 (66).
HRD is linked to the response to platinum based chemotherapy. Birkbak et al. analyzed SNParray profiles from a series of 79 patients with TNBC, including 28 patients treated by cisplatin prior to surgery (Cisplatin-1 trial) and 51 patients treated with cisplatin in addition to bevacizumab (Cisplatin-2 trial) (59).

N.N.[Cl][Pt][Cl] [Cisplatin, cisplatin]
Non Responders (number of tumors) (BRCA1/2 inactivated tumors): 8
Responders (number of tumors) (BRCA1/2 inactivated tumors): 9
Miller Payne Response Score 4 (CR), number of tumors (LST^hi tumors): 7
Miller Payne Response Score 5 (pCR), number of tumors (LST^hi tumors): 11
Miller Payne Response Score 4 (CR), number of tumors (LST^lo tumors): 1
Miller Payne Response Score 5 (pCR), number of tumors (LST^lo tumors): 0
Non Responders (Miller-Payne 0-3), number of tumors (LST_high tumors): 15
Responders (Miller-Payne 4-5), number of tumors (LST_high tumors): 18
Responders (Miller-Payne 4-5), number of tumors (LST_high tumors, listed as cisplatin): 18/33
Non Responders (Miller-Payne 0-3), number of tumors (LST_low tumors): 20
Responders (Miller-Payne 4-5), number of tumors (LST_low tumors): 1
Responders (Miller-Payne 4-5), number of tumors (LST_low tumors, listed as cisplatin): 1/21
Non Responders (number of tumors) (NON BRCA1/2 or NA tumors): 27
Responders (number of tumors) (NON BRCA1/2 or NA tumors): 10
